# Values of other authors, collected in US20250262166A1, “NANOPARTICLES COMPRISING ENZALUTAMIDE” (priority 2019, published 2025).
compound,measurement,value
CNC(=O)c1ccc(N2C(=S)N(c3ccc(C#N)c(C(F)(F)F)c3)C(=O)C2(C)C)cc1F [Enzalutamide],solubility in water,insoluble in water
